Experimental data published in PMC11946679 (Toxics, 2025).

Tested on: human peripheral blood lymphocytes
Experiment: CBMN cytome assay: micronuclei, nuclear buds, nucleoplasmic bridges
Details: 3 h
[1] = 1× + IRI 9.0 mg/L, propolis 1.36 mg/L, galangin 0.02 mg/L
[2] = 1× alone, propolis 1.36 mg/L, galangin 0.02 mg/L
[3] = 5× + IRI 9.0 mg/L, propolis 6.8 mg/L, galangin […]
[4] = 5× alone, propolis 6.8 mg/L, galangin […]
[5] = 10× + IRI 9.0 mg/L, propolis 13.6 mg/L, galangin 0.22 mg/L
[6] = 10× alone, propolis 13.6 mg/L, galangin 0.22 mg/L

Protocol: The CBMN assay was performed in line with standard protocols [8, 23].
To collect the blood sample, lithium heparin-coated tubes were used (BD vacutainer® with LH 170 I.U., Becton Dickinson: BD-Plymouth PL6 78P, UK).
There were 15 experimental groups altogether. The same experimental design was applied in two independent trials, each of which had two replicate cultures per experimental group; therefore, four replicate cultures for every single experimental group were established.
To induce cell division prior to exposure to the test chemicals, lymphocytes were stimulated with the mitogen phytohemagglutinin (PHA). Cultures were kept in a humidified atmosphere of 5% CO2 at 37 °C.
They started 41 h after PHA stimulation and lasted for 3 h at 37 °C.
Upon completion of exposure, lymphocyte cultures were centrifuged at 100× g. […] This procedure was timed for the 44th hour of lymphocyte cultivation, which represents a critical point for adding of cytoB to hinder cytokinesis and obtain binucleated cells. All treated and control cultures were further maintained at 37 °C until the end of the 72nd hour of cultivation, according to the above-mentioned standard protocols.
The first step in the preparation of microscopic slides was harvesting of cells by centrifugation (100× g), followed by treatment with 0.075 mol/L potassium chloride and succeeded by centrifugation. The sediments of cells were repeatedly fixed with methanol/acetic acid (3:1 v/v) followed by centrifugation. The final lymphocyte suspension was pipetted onto clean microscope slides. For staining, 5% aqueous solution of Giemsa dye was used. Slides were screened using a light microscope at 1000× magnification. For morphological discrimination of micronuclei (MNi), nuclear buds (NBs), nucleoplasmic bridges (NPBs) and cells in apoptosis or necrosis, the criteria by Fenech et al. [25] and Fenech [23] were applied. To determine their frequencies, per experimental point, a total of 4 × 1000 binucleated (BN) cells were scored.
This value was first used to estimate the number of MNi required to reach a decrease and an increase considered significant at a 5% significance level.

For `O=c1c(O)c(-c2ccccc2)oc2cc(O)cc(O)c12` [Galangin], the “Distribution of BNMN Cells with 1 MN” value [1] was 45 c,p1,p5,p10,g1,g5,g10,p1+iri, p5+iri, p10+iri, the “Distribution of BNMN Cells with 2 MN” value [1] was 1 and the “Distribution of BNMN Cells with 3 MN” value [1] was 0. The “Distribution of BNMN Cells with 4 MN” value [1] was 0, the “Distribution of BNNB Cells with 1 NB” value [1] was 33 c,p1,p5, p10,g1,g5,g10, p1+iri, p10+iri and the “Distribution of BNNB Cells with 2 NB” value [1] was 2. The “Distribution of BNNPB Cells with 1 NPB” value [1] was 0, the “Distribution of BNNPB Cells with 2 NPB” value [1] was 0 and the “Micronuclei (MNi) Mean (BNMN)1000 ± SD” value [1] was 11.50 ± 3.70 c,p1,p5,p10,g1,g5, g10,p1+iri, p5+iri, p10+iri. The “Micronuclei (MNi) Mean (MNi)1000 ± SD” value [1] was 11.75 ± 4.11 c,p1,p5,p10,g1,g5,g10, p1+iri, the “Micronuclei (MNi) Total (BNMN)4000” value [1] was 46 c,p1,p5,p10,g1,g5,g10, p1+iri, p5+iri, p10+iri and the “Micronuclei (MNi) Total (MNi)4000” value [1] was 47 c,p1,p5,p10,g1,g5, g10,p1+iri. The “Nuclear Buds (NBs) Mean (BNNB)1000 ± SD” value [1] was 8.75 ± 0.96 c,p1,p5,p10, g1,g5,g10, p1+iri,p5+iri, p10+iri, the “Nuclear Buds (NBs) Mean (NBs)1000 ± SD” value [1] was 9.25 ± 1.50 c,p1,p5,p10,g1,g5,g10, p1+iri,p5+iri, p10+iri and the “Nuclear Buds (NBs) Total (BNNB)4000” value [1] was 35 c,p1,p5,p10, g1,g5,g10, p1+iri,p5+iri,p10+iri. For the same compound, the “Nuclear Buds (NBs) Total (NBs)4000” value [1] was 37 c,p1,p5, p10,g1,g5, g10, p1+iri, p5+iri, p10+iri, the “Nucleoplasmic Bridges (NPBs) Mean (BNNPB)1000 ± SD” value [1] was 0 and the “Nucleoplasmic Bridges (NPBs) Mean (NPBs)1000 ± SD” value [1] was 0. For the same compound, the “Nucleoplasmic Bridges (NPBs) Total (BNNPB)4000” value [1] was 0, the “Nucleoplasmic Bridges (NPBs) Total (NPBs)4000” value [1] was 0 and the “Micronuclei (MNi) Mean (MNi)1000 ± SD” value (1× + IRI 9.0 mg/L, propolis 1.36 mg/L, galangin 0.02 mg/L, listed as galangin) was 11.75. For the same compound, the “Distribution of BNMN Cells with 1 MN” value [2] was 8, the “Distribution of BNMN Cells with 2 MN” value [2] was 0 and the “Distribution of BNMN Cells with 3 MN” value [2] was 0. The “Distribution of BNMN Cells with 4 MN” value [2] was 0, the “Distribution of BNNB Cells with 1 NB” value [2] was 7 and the “Distribution of BNNB Cells with 2 NB” value [2] was 0. For the same compound, the “Distribution of BNNPB Cells with 1 NPB” value [2] was 0, the “Distribution of BNNPB Cells with 2 NPB” value [2] was 0 and the “Micronuclei (MNi) Mean (BNMN)1000 ± SD” value [2] was 2.00 ± 0.82. The “Micronuclei (MNi) Mean (MNi)1000 ± SD” value [2] was 2.00 ± 0.82, the “Micronuclei (MNi) Total (BNMN)4000” value [2] was 8 and the “Micronuclei (MNi) Total (MNi)4000” value [2] was 8. The “Nuclear Buds (NBs) Mean (BNNB)1000 ± SD” value [2] was 1.75 ± 0.50, the “Nuclear Buds (NBs) Mean (NBs)1000 ± SD” value [2] was 1.75 ± 0.50 and the “Nuclear Buds (NBs) Total (BNNB)4000” value [2] was 7. For the same compound, the “Nuclear Buds (NBs) Total (NBs)4000” value [2] was 7, the “Nucleoplasmic Bridges (NPBs) Mean (BNNPB)1000 ± SD” value [2] was 0 and the “Nucleoplasmic Bridges (NPBs) Mean (NPBs)1000 ± SD” value [2] was 0. The “Nucleoplasmic Bridges (NPBs) Total (BNNPB)4000” value [2] was 0, the “Nucleoplasmic Bridges (NPBs) Total (NPBs)4000” value [2] was 0 and the “Micronuclei (MNi) Mean (MNi)1000 ± SD” value (1× alone, propolis 1.36 mg/L, galangin 0.02 mg/L, listed as galangin) was 2.00. For the same compound, the “Distribution of BNMN Cells with 1 MN” value [3] was 43 c,p1,p5, p10,g1,g5, g10,p1+iri, p5+iri, p10+iri, the “Distribution of BNMN Cells with 2 MN” value [3] was 1 and the “Distribution of BNMN Cells with 3 MN” value [3] was 0. The “Distribution of BNMN Cells with 4 MN” value [3] was 0, the “Distribution of BNNB Cells with 1 NB” value [3] was 32 c,p1,p5, p10,g1, g5,g10, p1+iri, p10+iri and the “Distribution of BNNB Cells with 2 NB” value [3] was 0. For the same compound, the “Distribution of BNNPB Cells with 1 NPB” value [3] was 0, the “Distribution of BNNPB Cells with 2 NPB” value [3] was 0 and the “Micronuclei (MNi) Mean (BNMN)1000 ± SD” value [3] was 11.00 ± 0.82 c,p1,p5,p10,g1,g5, g10,p1+iri, p5+iri. The “Micronuclei (MNi) Mean (MNi)1000 ± SD” value [3] was 11.25 ± 0.96 c,p1,p5,p10,g1,g5,g10, p1+iri, the “Micronuclei (MNi) Total (BNMN)4000” value [3] was 44 c,p1,p5,p10,g1,g5,g10, p1+iri, p5+iri and the “Micronuclei (MNi) Total (MNi)4000” value [3] was 45 c,p1,p5,p10,g1,g5, g10,p1+iri. For the same compound, the “Nuclear Buds (NBs) Mean (BNNB)1000 ± SD” value [3] was 8.00 ± 1.41 c,p1,p5,p10, g1,g5,g10, p1+iri,p10+iri, the “Nuclear Buds (NBs) Mean (NBs)1000 ± SD” value [3] was 8.00 ± 1.41 c,p1,p5,p10,g1,g5,g10, p1+iri,p10+iri and the “Nuclear Buds (NBs) Total (BNNB)4000” value [3] was 32 c,p1,p5,p10, g1,g5,g10, p1+iri, p10+iri. The “Nuclear Buds (NBs) Total (NBs)4000” value [3] was 32 c,p1,p5, p10,g1,g5, g10, p1+iri, p10+iri, the “Nucleoplasmic Bridges (NPBs) Mean (BNNPB)1000 ± SD” value [3] was 0 and the “Nucleoplasmic Bridges (NPBs) Mean (NPBs)1000 ± SD” value [3] was 0. The “Nucleoplasmic Bridges (NPBs) Total (BNNPB)4000” value [3] was 0, the “Nucleoplasmic Bridges (NPBs) Total (NPBs)4000” value [3] was 0 and the “Micronuclei (MNi) Mean (MNi)1000 ± SD” value (5× + IRI 9.0 mg/L, propolis 6.8 mg/L, galangin […], listed as galangin) was 11.25. For the same compound, the “Distribution of BNMN Cells with 1 MN” value [4] was 9, the “Distribution of BNMN Cells with 2 MN” value [4] was 0 and the “Distribution of BNMN Cells with 3 MN” value [4] was 0. For the same compound, the “Distribution of BNMN Cells with 4 MN” value [4] was 0, the “Distribution of BNNB Cells with 1 NB” value [4] was 9 and the “Distribution of BNNB Cells with 2 NB” value [4] was 0. For the same compound, the “Distribution of BNNPB Cells with 1 NPB” value [4] was 0, the “Distribution of BNNPB Cells with 2 NPB” value [4] was 0 and the “Micronuclei (MNi) Mean (BNMN)1000 ± SD” value [4] was 2.25 ± 0.50. The “Micronuclei (MNi) Mean (MNi)1000 ± SD” value [4] was 2.25 ± 0.50, the “Micronuclei (MNi) Total (BNMN)4000” value [4] was 9 and the “Micronuclei (MNi) Total (MNi)4000” value [4] was 9. For the same compound, the “Nuclear Buds (NBs) Mean (BNNB)1000 ± SD” value [4] was 2.25 ± 0.96, the “Nuclear Buds (NBs) Mean (NBs)1000 ± SD” value [4] was 2.25 ± 0.96 and the “Nuclear Buds (NBs) Total (BNNB)4000” value [4] was 9. For the same compound, the “Nuclear Buds (NBs) Total (NBs)4000” value [4] was 9, the “Nucleoplasmic Bridges (NPBs) Mean (BNNPB)1000 ± SD” value [4] was 0 and the “Nucleoplasmic Bridges (NPBs) Mean (NPBs)1000 ± SD” value [4] was 0. The “Nucleoplasmic Bridges (NPBs) Total (BNNPB)4000” value [4] was 0, the “Nucleoplasmic Bridges (NPBs) Total (NPBs)4000” value [4] was 0 and the “Micronuclei (MNi) Mean (MNi)1000 ± SD” value (5× alone, propolis 6.8 mg/L, galangin […], listed as galangin) was 2.25. For the same compound, the “Distribution of BNMN Cells with 1 MN” value [5] was 44 c,p1,p5, p10,g1,g5, g10,p1+iri, p5+iri, p10+iri, the “Distribution of BNMN Cells with 2 MN” value [5] was 5 and the “Distribution of BNMN Cells with 3 MN” value [5] was 0. The “Distribution of BNMN Cells with 4 MN” value [5] was 0, the “Distribution of BNNB Cells with 1 NB” value [5] was 30 c,p1,p5, p10,g1,g5,g10, p1+iri and the “Distribution of BNNB Cells with 2 NB” value [5] was 0. The “Distribution of BNNPB Cells with 1 NPB” value [5] was 0, the “Distribution of BNNPB Cells with 2 NPB” value [5] was 0 and the “Micronuclei (MNi) Mean (BNMN)1000 ± SD” value [5] was 12.25 ± 0.82 c,p1,p5,p10,g1,g5, g10,p1+iri, p5+iri, p10+iri. For the same compound, the “Micronuclei (MNi) Mean (MNi)1000 ± SD” value [5] was 13.50 ± 1.29 c,p1,p5,p10,g1,g5,g10, p1+iri, p5+iri, p10+iri, the “Micronuclei (MNi) Total (BNMN)4000” value [5] was 49 c,p1,p5,p10,g1,g5,g10, p1+iri, p5+iri, p10+iri and the “Micronuclei (MNi) Total (MNi)4000” value [5] was 54 c,p1,p5,p10,g1,g5, g10,p1+iri, p5+iri, p10+iri. For the same compound, the “Nuclear Buds (NBs) Mean (BNNB)1000 ± SD” value [5] was 7.50 ± 1.29 c,p1,p5,p10, g1,g5,g10, p1+iri, the “Nuclear Buds (NBs) Mean (NBs)1000 ± SD” value [5] was 7.50 ± 1.29 c,p1,p5,p10,g1,g5,g10,p1+iri and the “Nuclear Buds (NBs) Total (BNNB)4000” value [5] was 30 c,p1,p5,p10, g1,g5,g10, p1+iri. The “Nuclear Buds (NBs) Total (NBs)4000” value [5] was 30 c,p1,p5, p10,g1,g5, g10,p1+iri, the “Nucleoplasmic Bridges (NPBs) Mean (BNNPB)1000 ± SD” value [5] was 0 and the “Nucleoplasmic Bridges (NPBs) Mean (NPBs)1000 ± SD” value [5] was 0. The “Nucleoplasmic Bridges (NPBs) Total (BNNPB)4000” value [5] was 0, the “Nucleoplasmic Bridges (NPBs) Total (NPBs)4000” value [5] was 0 and the “Micronuclei (MNi) Mean (MNi)1000 ± SD” value (10× + IRI 9.0 mg/L, propolis 13.6 mg/L, galangin 0.22 mg/L, listed as galangin) was 13.50. For the same compound, the “Distribution of BNMN Cells with 1 MN” value [6] was 7, the “Distribution of BNMN Cells with 2 MN” value [6] was 0 and the “Distribution of BNMN Cells with 3 MN” value [6] was 0. For the same compound, the “Distribution of BNMN Cells with 4 MN” value [6] was 0, the “Distribution of BNNB Cells with 1 NB” value [6] was 9 and the “Distribution of BNNB Cells with 2 NB” value [6] was 0. For the same compound, the “Distribution of BNNPB Cells with 1 NPB” value [6] was 0, the “Distribution of BNNPB Cells with 2 NPB” value [6] was 0 and the “Micronuclei (MNi) Mean (BNMN)1000 ± SD” value [6] was 1.75 ± 0.50. The “Micronuclei (MNi) Mean (MNi)1000 ± SD” value [6] was 1.75 ± 0.50, the “Micronuclei (MNi) Total (BNMN)4000” value [6] was 7 and the “Micronuclei (MNi) Total (MNi)4000” value [6] was 7. For the same compound, the “Nuclear Buds (NBs) Mean (BNNB)1000 ± SD” value [6] was 2.25 ± 0.50, the “Nuclear Buds (NBs) Mean (NBs)1000 ± SD” value [6] was 2.25 ± 0.50 and the “Nuclear Buds (NBs) Total (BNNB)4000” value [6] was 9. The “Nuclear Buds (NBs) Total (NBs)4000” value [6] was 9, the “Nucleoplasmic Bridges (NPBs) Mean (BNNPB)1000 ± SD” value [6] was 0 and the “Nucleoplasmic Bridges (NPBs) Mean (NPBs)1000 ± SD” value [6] was 0. The “Nucleoplasmic Bridges (NPBs) Total (BNNPB)4000” value [6] was 0, the “Nucleoplasmic Bridges (NPBs) Total (NPBs)4000” value [6] was 0 and the “Micronuclei (MNi) Mean (MNi)1000 ± SD” value (10× alone, propolis 13.6 mg/L, galangin 0.22 mg/L, listed as galangin) was 1.75.
